In PMC10486429, “Investigations Using Albumin Binders to Modify the Tissue Distribution Profile of Radiopharmaceuticals Exemplified with Folate Radioconjugates” (Cancers, 2023):
Blank lines part the entries; values can stand above or below the compound they belong to.

Tested on: KB tumor-bearing athymic nude mice
Test: Biodistribution of 177Lu-RedFols in KB tumor-bearing mice
Type: in vivo, mouse
Protocol: Athymic nude mice (Crl:CD1-Foxn^nu) were kept on a folate-deficient rodent diet (ssniff Spezialdiäten GmbH, Soest, Germany) for at least one week prior to inoculation with the tumor cells. Biodistribution studies were performed approx. two weeks after subcutaneous inoculation with KB tumor cells (5 × 10^6 in 100 μL PBS) (Supplementary Materials Section S12). […] Data were presented as the average ± SD of n = 3−4 mice.
Purpose: Biodistribution studies were performed in KB tumor-bearing athymic nude mice (Crl:CD1-Foxnnu) in order to investigate the tissue distribution profiles of the novel radioconjugates. The aim was to compare the impact of the two different albumin binders (4-(p-iodophenyl)butanoate unit vs. 5-(p-iodophenyl)pentanoate unit), and that of the in-corporation of an AMBA linker adjacent to the albumin binder on the distribution profile of the resulting folate radioconjugates.
Methods: The methods are described in the main article. The mice were sacrificed at […]

Tumor-to-kidney ratio, comparison among all folate radioconjugates: highest tumor-to-kidney ratio
Blood, accumulated activity (1 h p.i.): 26 ± 3 % IA/g
Bone, accumulated activity (1 h p.i.): 1.8 ± 0.5 % IA/g
Intestines, accumulated activity (1 h p.i.): 2.6 ± 0.8 % IA/g
KB tumor, accumulated activity (1 h p.i.): 8.5 ± 1.9 % IA/g
Kidneys, accumulated activity (1 h p.i.): 8.0 ± 1.3 % IA/g
Liver, accumulated activity (1 h p.i.): 3.7 ± 0.4 % IA/g
Lung, accumulated activity (1 h p.i.): 11 ± 1 % IA/g
Muscle, accumulated activity (1 h p.i.): 1.0 ± 0.1 % IA/g
Salivary glands, accumulated activity (1 h p.i.): 5.2 ± 1.5 % IA/g
Spleen, accumulated activity (1 h p.i.): 2.9 ± 0.4 % IA/g
Stomach, accumulated activity (1 h p.i.): 1.9 ± 0.5 % IA/g
Tumor-to-blood ratio (1 h p.i.): 0.33 ± 0.03
Tumor-to-kidney ratio (1 h p.i.): 1.1 ± 0.1
Tumor-to-liver ratio (1 h p.i.): 2.3 ± 0.4
Blood, accumulated activity (4 h p.i.): 17 ± 1 % IA/g
Bone, accumulated activity (4 h p.i.): 1.8 ± 0.1 % IA/g
Intestines, accumulated activity (4 h p.i.): 2.0 ± 0.2 % IA/g
KB tumor, accumulated activity (4 h p.i.): 18 ± 2 % IA/g
Kidneys, accumulated activity (4 h p.i.): 7.6 ± 0.4 % IA/g
Liver, accumulated activity (4 h p.i.): 3.0 ± 0.1 % IA/g
Lung, accumulated activity (4 h p.i.): 8.2 ± 0.6 % IA/g
Muscle, accumulated activity (4 h p.i.): 1.3 ± 0.1 % IA/g
Salivary glands, accumulated activity (4 h p.i.): 4.2 ± 0.1 % IA/g
Spleen, accumulated activity (4 h p.i.): 2.2 ± 0.2 % IA/g
Stomach, accumulated activity (4 h p.i.): 1.5 ± 0.1 % IA/g
Tumor-to-blood ratio (4 h p.i.): 1.1 ± 0.1
Tumor-to-kidney ratio (4 h p.i.): 2.4 ± 0.2
Tumor-to-liver ratio (4 h p.i.): 6.0 ± 0.8
Blood, accumulated activity (24 h p.i.): 7.9 ± 0.7 % IA/g
Bone, accumulated activity (24 h p.i.): 1.1 ± 0.1 % IA/g
Intestines, accumulated activity (24 h p.i.): 0.96 ± 0.15 % IA/g
KB tumor, accumulated activity (24 h p.i.): 39 ± 4 % IA/g
Kidneys, accumulated activity (24 h p.i.): 12 ± 2 % IA/g
Liver, accumulated activity (24 h p.i.): 1.9 ± 0.3 % IA/g
Lung, accumulated activity (24 h p.i.): 4.1 ± 0.1 % IA/g
Muscle, accumulated activity (24 h p.i.): 1.0 ± 0.1 % IA/g
Salivary glands, accumulated activity (24 h p.i.): 4.0 ± 1.1 % IA/g
Spleen, accumulated activity (24 h p.i.): 2.2 ± 0.1 % IA/g
Stomach, accumulated activity (24 h p.i.): 1.1 ± 0.1 % IA/g
Tumor-to-blood ratio (24 h p.i.): 5.0 ± 0.4
Tumor-to-kidney ratio (24 h p.i.): 3.3 ± 0.4
Tumor-to-liver ratio (24 h p.i.): 21 ± 1
Structure (SMILES): CN1c2c(nc(N)[nH]c2=O)NC[C@H]1CNc1ccc(C(=O)N[C@@H](CCC(=O)N[C@@H](CCCCNC(=O)CN2CCN(CC(=O)O)CCN(CC(=O)O)CCN(CC(=O)O)CC2)C(=O)N[C@@H](CCCCNC(=O)c2ccc(CNC(=O)CCCc3ccc(I)cc3)cc2)C(=O)O)C(=O)O)cc1 [[^177Lu]Lu-6R-RedFol-3, metal not drawn]

Structure (SMILES): CN1c2c(nc(N)[nH]c2=O)NCC1CNc1ccc(C(=O)NC(CCC(=O)NC(CCCCNC(=O)CN2CCN(CC(=O)[O-])CCN(CC(=O)[O-])CCN(CC(=O)[O-])CC2)C(=O)NC(CCCCNC(=O)c2ccc(CNC(=O)CCCCc3ccc(I)cc3)cc2)C(=O)O)C(=O)O)cc1.[177Lu+3] (stereo not drawn) [[^177Lu]Lu-6S-RedFol-25]
Blood, accumulated activity (1 h p.i.): 13 ± 2 % IA/g
Bone, accumulated activity (1 h p.i.): 1.4 ± 0.2 % IA/g
Intestines, accumulated activity (1 h p.i.): 1.3 ± 0.3 % IA/g
KB tumor, accumulated activity (1 h p.i.): 17 ± 2 % IA/g
Kidneys, accumulated activity (1 h p.i.): 38 ± 5 % IA/g
Liver, accumulated activity (1 h p.i.): 2.3 ± 0.1 % IA/g
Lung, accumulated activity (1 h p.i.): 5.5 ± 0.8 % IA/g
Muscle, accumulated activity (1 h p.i.): 1.2 ± 0.2 % IA/g
Salivary glands, accumulated activity (1 h p.i.): 2.2 ± 1.5 % IA/g
Spleen, accumulated activity (1 h p.i.): 1.4 ± 0.2 % IA/g
Stomach, accumulated activity (1 h p.i.): 1.3 ± 0.2 % IA/g
Tumor-to-blood ratio (1 h p.i.): 1.3 ± 0.1
Tumor-to-kidney ratio (1 h p.i.): 0.45 ± 0.02
Tumor-to-liver ratio (1 h p.i.): 7.4 ± 0.6
Blood, accumulated activity (4 h p.i.): 8.4 ± 2.8 % IA/g
Bone, accumulated activity (4 h p.i.): 1.1 ± 0.4 % IA/g
Intestines, accumulated activity (4 h p.i.): 1.2 ± 0.4 % IA/g
KB tumor, accumulated activity (4 h p.i.): 32 ± 8 % IA/g
Kidneys, accumulated activity (4 h p.i.): 88 ± 23 % IA/g
Liver, accumulated activity (4 h p.i.): 1.9 ± 0.5 % IA/g
Lung, accumulated activity (4 h p.i.): 4.1 ± 1.4 % IA/g
Muscle, accumulated activity (4 h p.i.): 0.92 ± 0.27 % IA/g
Salivary glands, accumulated activity (4 h p.i.): 1.9 ± 1.1 % IA/g
Spleen, accumulated activity (4 h p.i.): 1.3 ± 0.3 % IA/g
Stomach, accumulated activity (4 h p.i.): 1.0 ± 0.4 % IA/g
Tumor-to-blood ratio (4 h p.i.): 4.0 ± 1.2
Tumor-to-kidney ratio (4 h p.i.): 0.37 ± 0.05
Tumor-to-liver ratio (4 h p.i.): 18 ± 5
Blood, accumulated activity (24 h p.i.): 0.15 ± 0.09 % IA/g
Bone, accumulated activity (24 h p.i.): 0.14 ± 0.05 % IA/g
Intestines, accumulated activity (24 h p.i.): 0.10 ± 0.03 % IA/g
KB tumor, accumulated activity (24 h p.i.): 37 ± 4 % IA/g
Kidneys, accumulated activity (24 h p.i.): 121 ± 13 % IA/g
Liver, accumulated activity (24 h p.i.): 0.56 ± 0.07 % IA/g
Lung, accumulated activity (24 h p.i.): 0.27 ± 0.06 % IA/g
Muscle, accumulated activity (24 h p.i.): 0.10 ± 0.02 % IA/g
Salivary glands, accumulated activity (24 h p.i.): 0.49 ± 0.04 % IA/g
Spleen, accumulated activity (24 h p.i.): 0.42 ± 0.05 % IA/g
Stomach, accumulated activity (24 h p.i.): 0.13 ± 0.04 % IA/g
Tumor-to-blood ratio (24 h p.i.): 316 ± 150
Tumor-to-kidney ratio (24 h p.i.): 0.31 ± 0.02
Tumor-to-liver ratio (24 h p.i.): 67 ± 16
